Measurements taken from patent US9273057B2 (Bristol-Myers Squibb Company, priority 2012, dated 2016).
Where a name gives a salt, the structure may show the parent alone.

These compounds were tested against CK2A1 (CK2α/β) (Homo sapiens, UniProt P68400) (assay: CK2 kinase assay, CK2A1 (CK2α/β)). Conditions: Table A; read-out: CK2A1 (CK2α/β) (IC50).
Type: biochemical

Chain of CK2A1 (CK2α/β) (P68400 whole entry, species assumed): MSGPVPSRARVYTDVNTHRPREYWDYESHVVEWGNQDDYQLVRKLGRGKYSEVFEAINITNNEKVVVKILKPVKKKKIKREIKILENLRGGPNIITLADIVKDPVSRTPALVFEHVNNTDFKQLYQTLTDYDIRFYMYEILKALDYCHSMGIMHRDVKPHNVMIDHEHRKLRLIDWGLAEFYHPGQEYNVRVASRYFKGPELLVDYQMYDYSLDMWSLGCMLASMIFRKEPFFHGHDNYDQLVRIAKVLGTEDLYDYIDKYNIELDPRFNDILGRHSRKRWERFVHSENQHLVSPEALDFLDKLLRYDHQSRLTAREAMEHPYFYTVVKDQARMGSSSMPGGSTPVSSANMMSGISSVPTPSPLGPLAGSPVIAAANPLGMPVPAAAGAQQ
Chain of CK2A1 (CK2α/β) (P67870 whole entry partner, species assumed): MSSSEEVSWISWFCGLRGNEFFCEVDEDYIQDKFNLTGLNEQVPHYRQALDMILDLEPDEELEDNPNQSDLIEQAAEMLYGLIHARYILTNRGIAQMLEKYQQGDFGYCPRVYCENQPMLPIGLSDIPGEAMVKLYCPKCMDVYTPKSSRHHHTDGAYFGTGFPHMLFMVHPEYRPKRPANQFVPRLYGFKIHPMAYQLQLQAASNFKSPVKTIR

Structure (SMILES)	IC50 [nM]
CCNc1nc(Nc2cc(C#N)cc(N3CC[C@@H](NC(=O)OC)[C@H](N(C)[C@@H](C)C(N)=O)C3)c2Cl)nn2c(C#N)cnc12 [Example 768, methyl N-[(3R,4R)-3-{[(1S)-1-carbamoylethyl](methyl)amino}-1-(2-chloro-5-cyano-3-{[7-cyano-4-(ethylamino)imidazo[2,1-f] [1,2,4]triazin-2-yl]amino}phenyl)piperidin-4-yl] carbamate]	4
CCNc1nc(Nc2cc(C#N)cc(N3CC[C@@H](NC(=O)OC)[C@H](N(C)CC(C)(C)O)C3)c2Cl)nn2c(C#N)cnc12 [Example 770, methyl N-[(3R,4R)-1-(2-chloro-5-cyano-3-{[7-cyano-4-(ethylamino)imidazo[2,1-f][1,2,4]triazin-2-yl]amino}phenyl)-3-[(2-hydroxy-2-methylpropyl)(methyl)amino]piperidin-4-yl] carbamate]	9
CCNc1nc(Nc2cc(C#N)cc(N3CC[C@@H](NC(=O)OC)[C@@H](N(C)CC(C)(C)O)C3)c2Cl)nn2c(C#N)cnc12 [Example 771, methyl N-[(3S,4R)-1-(2-chloro-5-cyano-3-{[7-cyano-4-(ethylamino)imidazo[2,1-f][1,2,4]triazin-2-yl]amino}phenyl)-3-[(2-hydroxy-2-methylpropyl)(methyl)amino]piperidin-4-yl] carbamate]	7
CCNc1nc(Nc2cc(C#N)cc(N3CC[C@@H](NC(=O)OC)C(N(C)C[C@H](O)CO)C3)c2Cl)nn2c(C#N)cnc12 (stereo partly drawn) [Example 772, methyl N-[(4R)-1-(2-chloro-5-cyano-3-{[7-cyano-4-(ethylamino)imidazo[2,1-f][1,2,4]triazin-2-yl]amino}phenyl)-3-{[(2S)-2,3-dihydroxypropyl](methyl)amino}piperidin-4-yl]carbamate]	14.1
CCNc1nc(Nc2cc(C#N)cc(N3C[C@@H]4C[C@H]3CN4C)c2Cl)nn2c(C#N)cnc12 [Example 773, 2-((2-chloro-5-cyano-3-((1S,4S)-5-methyl-2,5-diazabicyclo[2.2.1]heptan-2-yl)phenyl)amino)-4-(ethylamino)imidazo[2,1-f][1,2,4]triazine-7-carbonitrile]	0.64
N#Cc1cc(Nc2nc(NC3CC3)c3ncc(C#N)n3n2)c(Cl)c(N2C[C@@H]3CCCN(C4COC4)[C@@H]3C2)c1 [Example 778, 2-((2-chloro-5-cyano-3-((4aS,7aS)-1-(oxetan-3-yl)hexahydro-1H-pyrrolo[3,4-b]pyridin-6(2H)-yl)phenyl)amino)-4-(cyclopropylamino)imidazo[2,1-f][1,2,4]triazine-7-carbonitrile]	1.09
CN1CC2(CCN(c3cc(C#N)cc(Nc4nc(NC5CC5)c5ncc(C#N)n5n4)c3Cl)CC2)OC1=O [Example 780, 2-((2-chloro-5-cyano-3-(3-methyl-2-oxo-1-oxa-3,8-diazaspiro[4.5]decan-8-yl)phenyl)amino)-4-(cyclopropylamino)imidazo[2,1-f][1,2,4]triazine-7-carbonitrile]	0.67
CC(=O)N1CCC2(CCN(c3cc(C#N)cc(Nc4nc(NC5CC5)c5ncc(C#N)n5n4)c3Cl)CC2)C1 [Example 786, 2-((3-(2-acetyl-2,8-diazaspiro[4.5]decan-8-yl)-2-chloro-5-cyanophenyl)amino)-4-(cyclopropylamino)imidazo[2,1-f][1,2,4]triazine-7-carbonitrile]	1.41
CCNc1nc(Nc2cc(C#N)cc(N3CCC4(CCN(C(C)=O)C4)CC3)c2Cl)nn2c(C#N)cnc12 [Example 787, 2-((3-(2-acetyl-2,8-diazaspiro[4.5]decan-8-yl)-2-chloro-5-cyanophenyl)amino)-4-(ethylamino)imidazo[2,1-f][1,2,4]triazine-7-carbonitrile]	1.66
CC(=O)NN1CCN(c2cc(C#N)cc(Nc3nc(NC4CC4)c4ncc(C#N)n4n3)c2Cl)CC1 [Example 789, N-(4-(2-chloro-5-cyano-3-((7-cyano-4-(cyclopropylamino)imidazo[2,1-f][1,2,4]triazin-2-yl)amino)phenyl)piperazin-1-yl)acetamide]	0.61
COC(=O)NN1CCN(c2cc(C#N)cc(Nc3nc(NC4CC4)c4ncc(C#N)n4n3)c2Cl)CC1 [Example 790, methyl (4-(2-chloro-5-cyano-3-((7-cyano-4-(cyclopropylamino)imidazo[2,1-f][1,2,4]triazin-2-yl)amino)phenyl)piperazin-1-yl)carbamate]	1.52
N#Cc1cc(Nc2nc(NC3CC3)c3ncc(C#N)n3n2)c(Cl)c(N2CCN(NCC(N)=O)CC2)c1 [Example 791, 2-((4-(2-chloro-5-cyano-3-((7-cyano-4-(cyclopropylamino)imidazo[2,1-f][1,2,4]triazin-2-yl)amino)phenyl)piperazin-1-yl)amino)acetamide]	1.52
N#Cc1cc(Nc2nc(NC3CC3)c3ncc(C#N)n3n2)c(Cl)c(N2CCC3(CC2)CNC3)c1 [Example 792, 2-((2-chloro-5-cyano-3-(2,7-diazaspiro[3.5]nonan-7-yl)phenyl)amino)-4-(cyclopropylamino)imidazo[2,1-f][1,2,4]triazine-7-carbonitrile]	1.03

More lines, now with the values ahead:

IC50 [nM]	Structure (SMILES)
0.81	CC(=O)N1CC2(CCN(c3cc(C#N)cc(Nc4nc(NC5CC5)c5ncc(C#N)n5n4)c3Cl)CC2)C1 [Example 793, 2-((3-(2-acetyl-2,7-diazaspiro[3.5]nonan-7-yl)-2-chloro-5-cyanophenyl)amino)-4-(cyclopropylamino)imidazo[2,1-f][1,2,4]triazine-7-carbonitrile]
1.41	C[C@@H](O)C(=O)N1CC2(CCN(c3cc(C#N)cc(Nc4nc(NC5CC5)c5ncc(C#N)n5n4)c3Cl)CC2)C1 [Example 794, (R)-2-((2-chloro-5-cyano-3-(2-(2-hydroxypropanoyl)-2,7-diazaspiro[3.5]nonan-7-yl)phenyl)amino)-4-(cyclopropylamino)imidazo[2,1-f][1,2,4]triazine-7-carbonitrile]
1.12	C[C@H](O)C(=O)N1CC2(CCN(c3cc(C#N)cc(Nc4nc(NC5CC5)c5ncc(C#N)n5n4)c3Cl)CC2)C1 [Example 795, (S)-2-((2-chloro-5-cyano-3-(2-(2-hydroxypropanoyl)-2,7-diazaspiro[3.5]nonan-7-yl)phenyl)amino)-4-(cyclopropylamino)imidazo[2,1-f][1,2,4]triazine-7-carbonitrile]
1.8	CN1CC2(CCN(c3cc(C#N)cc(Nc4nc(NC5CC5)c5ncc(C#N)n5n4)c3Cl)CC2)C1 [Example 798, 2-((2-chloro-5-cyano-3-(2-methyl-2,7-diazaspiro[3.5]nonan-7-yl)phenyl)amino)-4-(cyclopropylamino)imidazo[2,1-f][1,2,4]triazine-7-carbonitrile]
2.46	CNC(=O)CN1CC2(CCN(c3cc(C#N)cc(Nc4nc(NC5CC5)c5ncc(C#N)n5n4)c3Cl)CC2)C1 [Example 799, 2-(7-(2-chloro-5-cyano-3-((7-cyano-4-(cyclopropylamino)imidazo[2,1-f][1,2,4]triazin-2-yl)amino)phenyl)-2,7-diazaspiro[3.5]nonan-2-yl)-N-methylacetamide]
2.14	N#Cc1cc(Nc2nc(NC3CC3)c3ncc(C#N)n3n2)c(Cl)c(N2CCC3(CC2)CN(CC(N)=O)C3)c1 [Example 800, 2-(7-(2-chloro-5-cyano-3-((7-cyano-4-(cyclopropylamino)imidazo[2,1-f][1,2,4]triazin-2-yl)amino)phenyl)-2,7-diazaspiro[3.5]nonan-2-yl)acetamide]
2.16	CCN1CC2(CCN(c3cc(C#N)cc(Nc4nc(NC5CC5)c5ncc(C#N)n5n4)c3Cl)CC2)C1 [Example 801, 2-((2-chloro-5-cyano-3-(2-ethyl-2,7-diazaspiro[3.5]nonan-7-yl)phenyl)amino)-4-(cyclopropylamino)imidazo[2,1-f][1,2,4]triazine-7-carbonitrile]
2.8	CC(C)(C(N)=O)N1CC2(CCN(c3cc(C#N)cc(Nc4nc(NC5CC5)c5ncc(C#N)n5n4)c3Cl)CC2)C1 [Example 803, 2-(7-(2-chloro-5-cyano-3-((7-cyano-4-(cyclopropylamino)imidazo[2,1-f][1,2,4]triazin-2-yl)amino)phenyl)-2,7-diazaspiro[3.5]nonan-2-yl)-2-methylpropanamide]
1.7	N#Cc1cc(Nc2nc(NC3CC3)c3ncc(C#N)n3n2)c(Cl)c(N2CCC3(CC2)CN(CC(=O)N2CCNCC2)C3)c1 [Example 804]
5.35	N#Cc1cc(Nc2nc(NC3CC3)c3ncc(C#N)n3n2)c(Cl)c(N2CCC3(CC2)CN(Cc2ccc[nH]c2=O)C3)c1 [Example 805, 2-((2-chloro-5-cyano-3-(2-((2-oxo-1,2-dihydropyridin-3-yl)methyl)-2,7-diazaspiro[3.5]nonan-7-yl)phenyl)amino)-4-(cyclopropylamino)imidazo[2,1-f][1,2,4]triazine-7-carbonitrile]
0.84	CC(=O)N1CCC2(CC1)CN(c1cc(C#N)cc(Nc3nc(NC4CC4)c4ncc(C#N)n4n3)c1Cl)C2 [Example 806, 2-((3-(7-acetyl-2,7-diazaspiro[3.5]nonan-2-yl)-2-chloro-5-cyanophenyl)amino)-4-(cyclopropylamino)imidazo[2,1-f][1,2,4]triazine-7-carbonitrile]
0.44	CCNc1nc(Nc2cc(C#N)cc(N3CC[C@@H](NC(=O)OC)[C@H](OC(=O)[C@@H](N)CCCNC(=N)N)C3)c2Cl)nn2c(C#N)cnc12 [Example 808, (S)-(3R,4R)-1-(2-chloro-5-cyano-3-((7-cyano-4-(ethylamino)imidazo[2,1-f][1,2,4]triazin-2-yl)amino)phenyl)-4-((methoxycarbonyl)amino)piperidin-3-yl 2-amino-5-guanidinopentanoate trihydrochloride]
1	CCNc1nc(Nc2cc(C#N)cc(N3CC[C@@H](NC(=O)OC)[C@H](OC(=O)[C@@H](N)Cc4cnc[nH]4)C3)c2Cl)nn2c(C#N)cnc12 [Example 809, (S)-(3R,4R)-1-(2-chloro-5-cyano-3-((7-cyano-4-(ethylamino)imidazo[2,1-f][1,2,4]triazin-2-yl)amino)phenyl)-4-((methoxycarbonyl)amino)piperidin-3-yl 2-amino-3-(1H-imidazol-5-yl)propanoate dihydrochloride]
